In US20240246908A1 (ORION CORPORATION, priority 2021, published 2024):

These molecules were tested on YAP-TEAD (assay: TEAD inhibition, Hippo Pathway TEAD Reporter MCF-7 luciferase assay). Details: Homo sapiens, MCF7, 24 h, Hippo Pathway TEAD Reporter MCF-7 cells, luciferase activity after 24 h; read-out: IC50 of the test compounds on YAP-TEAD inhibition (Group).
Format: cell-based
Method in brief: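 MCF-7 cells carrying a TEAD-responsive firefly luciferase reporter, with nuclear YAP1 driving constitutive expression, were treated the day after plating with compounds (11 concentrations, 4 replicates; 0.1% DMSO control). After 24 h, luciferase was read by ONE-Glo luminescence and IC50 determined.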

Row | Structure (SMILES) | IC50
1 | CN1CC(=O)N(C)C(C(=O)Nc2cc(Oc3ccc(C(F)(F)F)cc3)cc3c2OCC3)C1 (stereo not drawn) [Compound 383, 1,4-Dimethyl-6-oxo-N-(5-(4-(trifluoromethyl)phenoxy)-2,3-dihydrobenzofuran-7-yl)piperazine-2-carboxamide] | 50 to 300 nM
2 | COc1ccc(Oc2ccc(Cl)cc2F)cc1NC(=O)C1CCC(=O)N1C (stereo not drawn) [Compound 385, N-(5-(4-Chloro-2-fluorophenoxy)-2-methoxyphenyl)-1-methyl-5-oxopyrrolidine-2-carboxamide] | < 50 nM
3 | COc1ccc(NC(=O)C2CCC(=O)N2C)cc1Cc1ccc(C(F)(F)F)cc1 (stereo not drawn) [Compound 387, N-(4-Methoxy-3-(4-(trifluoromethyl)benzyl)phenyl)-1-methyl-5-oxo-pyrrolidine-2-carboxamide] | 301 to 2000 nM
4 | COc1ccc(Oc2ccc(C(F)(F)F)cc2)cc1NC(=O)c1coc(=O)[nH]1 [Compound 388, N-(2-Methoxy-5-(4-(trifluoromethyl)phenoxy)phenyl)-2-oxo-2,3-dihydrooxazole-4-carboxamide] | 301 to 2000 nM
5 | COc1ccc(Oc2ccc(F)c(F)c2)c(C)c1NC(=O)C1CCC(=O)N1C (stereo not drawn) [Compound 389, N-(3-(3,4-Difluorophenoxy)-6-methoxy-2-methylphenyl)-1-methyl-5-oxopyrrolidine-2-carboxamide] | 301 to 2000 nM
6 | COc1ccc(Oc2cccc(C#N)c2)cc1NC(=O)C1CCC(=O)N1C (stereo not drawn) [Compound 390, N-(5-(3-Cyanophenoxy)-2-methoxyphenyl)-1-methyl-5-oxopyrrolidine-2-carboxamide] | 301 to 2000 nM
7 | COc1ccc(Oc2ccc(C(F)(F)F)c(OC)c2)cc1NC(=O)C1CCC(=O)N1C (stereo not drawn) [Compound 391, N-(2-Methoxy-5-(3-methoxy-4-(trifluoromethyl)phenoxy)phenyl)-1-methyl-5-oxopyrrolidine-2-carboxamide] | < 50 nM
8 | COc1ccc(Oc2ccc(C(F)(F)F)cc2)cc1NC(=O)c1nnn[nH]1 [Compound 392, N-(2-Methoxy-5-(4-(trifluoromethyl)phenoxy)phenyl)-1H-tetrazole-5-carboxamide] | 301 to 2000 nM
9 | COc1ccc(Oc2cc(C(F)(F)F)ccn2)cc1NC(=O)[C@H]1CCC(=O)N1C [Compound 393, (R)—N-(2-Methoxy-5-((4-(trifluoromethyl)pyridin-2-yl)oxy)phenyl)-1-methyl-5-oxopyrrolidine-2-carboxamide] | 301 to 2000 nM
10 | COc1ccc(Oc2cc(C(F)(F)F)ccn2)cc1NC(=O)[C@@H]1CCC(=O)N1C [Compound 394, (S)—N-(2-Methoxy-5-((4-(trifluoromethyl)pyridin-2-yl)oxy)phenyl)-1-methyl-5-oxopyrrolidine-2-carboxamide] | 301 to 2000 nM
11 | COc1ccc(Oc2ccc(C(F)(F)F)c(F)c2)cc1NC(=O)C1CCC(=O)N1C (stereo not drawn) [Compound 395] | < 50 nM
12 | COc1ccc(Oc2ccc(C#N)c(C(F)(F)F)c2)cc1NC(=O)C1CCC(=O)N1C (stereo not drawn) [Compound 396, N-(5-(4-Cyano-3-(trifluoromethyl)phenoxy)-2-methoxyphenyl)-1-methyl-5-oxopyrrolidine-2-carboxamide] | 50 to 300 nM
13 | COc1ccc(Oc2ccc(F)c(C#N)c2)cc1NC(=O)C1CCC(=O)N1C (stereo not drawn) [Compound 397, N-(5-(3-Cyano-4-fluorophenoxy)-2-methoxyphenyl)-1-methyl-5-oxopyrrolidine-2-carboxamide] | 301 to 2000 nM
14 | COc1ccc(Oc2ccc(C(F)(F)F)cc2F)cc1NC(=O)[C@@H]1CCC(=O)N1C [Compound 398, (S)—N-(5-(2-Fluoro-4-(trifluoromethyl)phenoxy)-2-methoxyphenyl)-1-methyl-5-oxopyrrolidine-2-carboxamide] | < 50 nM

Further lines, results first:

Row | IC50 | Structure (SMILES)
15 | < 50 nM | COc1ccc(Oc2cnc(C(F)(F)F)c(F)c2)cc1NC(=O)C1CCC(=O)N1C (stereo not drawn) [Compound 399]
16 | < 50 nM | COc1ccc(Oc2ccc(C(F)(F)F)c(F)n2)cc1NC(=O)C1CCC(=O)N1C (stereo not drawn) [Compound 400, N-(5-((6-Fluoro-5-(trifluoromethyl)pyridin-2-yl)oxy)-2-methoxyphenyl)-1-methyl-5-oxopyrrolidine-2-carboxamide]
17 | < 50 nM | COc1ccc(Oc2ccc(C(F)(F)F)c(F)n2)cc1NC(=O)[C@@H]1CCC(=O)N1C [Compound 401, (S)—N-(5-((6-Fluoro-5-(trifluoromethyl)pyridin-2-yl)oxy)-2-methoxyphenyl)-1-methyl-5-oxopyrrolidine-2-carboxamide]
18 | < 50 nM | COc1ccc(Oc2ccc(C(F)(F)F)c(F)n2)cc1NC(=O)[C@H]1CCC(=O)N1C [Compound 402, (R)—N-(5-((6-Fluoro-5-(trifluoromethyl)pyridin-2-yl)oxy)-2-methoxyphenyl)-1-methyl-5-oxopyrrolidine-2-carboxamide]
19 | < 50 nM | COc1ccc(Oc2ccc(C(F)(F)F)cn2)cc1NC(=O)[C@@H]1CCC(=O)N1C [Compound 403, (S)—N-(2-Methoxy-5-((5-(trifluoromethyl)pyridin-2-yl)oxy)phenyl)-1-methyl-5-oxopyrrolidine-2-carboxamide]
20 | 50 to 300 nM | COc1ccc(/C=C/C2CCC(F)(F)CC2)cc1NC(=O)C1CNC(=O)N1 (stereo not drawn) [Compound 404, (E)-N-(5-(2-(4,4-Difluorocyclohexyl)vinyl)-2-methoxyphenyl)-2-oxo-imidazolidine-4-carboxamide]
21 | < 50 nM | CN1C(=O)CC[C@@H]1C(=O)Nc1cc(/C=C/C2CCC(F)(F)CC2)cc2c1OCC2 [Compound 405, (R,E)-N-(5-(2-(4,4-Difluorocyclohexyl)vinyl)-2,3-dihydrobenzofuran-7-yl)-1-methyl-5-oxopyrrolidine-2-carboxamide]
22 | < 50 nM | CN1C(=O)CC[C@H]1C(=O)Nc1cc(/C=C/C2CCC(F)(F)CC2)cc2c1OCC2 [Compound 406, (S,E)-N-(5-(2-(4,4-Difluorocyclohexyl)vinyl)-2,3-dihydrobenzofuran-7-yl)-1-methyl-5-oxopyrrolidine-2-carboxamide]
23 | < 50 nM | CN1C(=O)NC[C@H]1C(=O)Nc1cc(/C=C/C2CCC(F)(F)CC2)cc2c1OCC2 [Compound 407, (S,E)-N-(5-(2-(4,4-Difluorocyclohexyl)vinyl)-2,3-dihydrobenzofuran-7-yl)-3-methyl-2-oxoimidazolidine-4-carboxamide]
24 | 50 to 300 nM | COc1ccc(/C=C/C2CCC(F)(F)CC2)cc1NC(=O)C1CN(C)C(=O)N1C (stereo not drawn) [Compound 408, (E)-N-(5-(2-(4,4-Difluorocyclohexyl)vinyl)-2-methoxyphenyl)-1,3-dimethyl-2-oxoimidazolidine-4-carboxamide]
25 | < 50 nM | CN1C(=O)NC[C@H]1C(=O)Nc1cc(/C=C/C2CCC(F)(F)CC2)cc2c1OCO2 [Compound 409]
26 | 301 to 2000 nM | COc1cc(Oc2ccc(O)c(NC(=O)C3CCC(=O)N3C)c2)ccc1C(F)(F)F (stereo not drawn) [Compound 410, N-(2-Hydroxy-5-(3-methoxy-4-(trifluoromethyl)phenoxy)phenyl)-1-methyl-5-oxopyrrolidine-2-carboxamide]
27 | 301 to 2000 nM | COc1ccc(Oc2ccc(C(F)(F)F)cc2O)cc1NC(=O)C1CCC(=O)N1C (stereo not drawn) [Compound 411, N-(5-(2-Hydroxy-4-(trifluoromethyl)phenoxy)-2-methoxyphenyl)-1-methyl-5-oxopyrrolidine-2-carboxamide]
28 | 301 to 2000 nM | COc1ccc(Oc2ccc(C(F)(F)F)cc2)cc1NC(=O)C1CCN(C(C)=O)C1 (stereo not drawn) [Compound 412, 1-Acetyl-N-(2-methoxy-5-(4-(trifluoromethyl)phenoxy)phenyl)-pyrrolidine-3-carboxamide]
29 | 301 to 2000 nM | COc1ccc(Oc2cccc(F)c2)cc1NC(=O)C1CCN(C(C)=O)C1 (stereo not drawn) [Compound 413, 1-Acetyl-N-(5-(3-fluorophenoxy)-2-methoxyphenyl)pyrrolidine-3-carboxamide]
30 | 50 to 300 nM | COc1ccc(Oc2ccc(C(F)(F)F)cc2)cc1N(C)C(=O)[C@@H]1CCC(=O)N1C [Compound 417, (S)—N-(2-Methoxy-5-(4-(trifluoromethyl)phenoxy)phenyl)-N,1-dimethyl-5-oxopyrrolidine-2-carboxamide]
